Experimental data as given in publication PMC6689899, “An essential bifunctional enzyme in Mycobacterium tuberculosis for itaconate dissimilation and leucine catabolism” (Proceedings of the National Academy of Sciences of the …, 2019).

What was measured:
[1] = molecular target: T1, Rv2498c (Mycobacterium tuberculosis, UniProt P9WPE1)
T1 construct: gene citE

[2] = tested on: CC(=O)SCCNC(=O)CCNC(=O)[C@H](O)C(C)(C)COP(=O)(O)OP(=O)(O)OC[C@H]1O[C@@H](n2cnc3c(N)ncnc32)[C@H](O)[C@@H]1OP(=O)(O)O; assay: purified protein

T1 sequence (P9WPE1 whole entry): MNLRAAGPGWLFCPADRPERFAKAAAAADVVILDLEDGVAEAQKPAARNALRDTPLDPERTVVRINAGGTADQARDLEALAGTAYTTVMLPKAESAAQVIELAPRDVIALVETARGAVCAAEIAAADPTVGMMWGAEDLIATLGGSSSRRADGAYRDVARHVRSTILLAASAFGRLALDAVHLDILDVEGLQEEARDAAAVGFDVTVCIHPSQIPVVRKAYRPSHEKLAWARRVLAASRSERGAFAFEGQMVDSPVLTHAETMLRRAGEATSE

| Compound | X-ray crystal structure [1] | Km [2] | kcat/Km [2] |
| --- | --- | --- | --- |
| CC(C)(COP(=O)(O)OP(=O)(O)OC[C@H]1O[C@@H](n2cnc3c(N)ncnc32)[C@H](O)[C@@H]1OP(=O)(O)O)[C@@H](O)C(=O)NCCC(=O)NCCS [CoA] | complexes with (S)-citramalyl-CoA (PDB ID code 6AQ4) and with acetoacetate:CoA (PDB ID code 6AS5) | – | – |
| CC(=O)CC(=O)O [acetoacetate] | complexes with (S)-citramalyl-CoA (PDB ID code 6AQ4) and with acetoacetate:CoA (PDB ID code 6AS5) | – | – |
| Rv1837c (Mycobacterium tuberculosis H37Rv) | – | 45 ± 9 µM | 1.7e+06 M⁻¹ s⁻¹ |
